The values that follow come from patent US20100323955A1, “METHODS FOR TREATING OBESITY AND OBESITY RELATED DISEASES AND DISORDERS” (AMYLIN PHARMACEUTICALS, INC., priority 2007, published 2010).

The nature of test [1]: Example 4: amylin and phentermine in DIO rats, body weight and body composition. The note with it: after two weeks, FIG. 11C. Type of test: in vivo, rat. As for the experimental part:
The combination of amylin and catecholaminergic agonist, phentermine, were also tested for effects on changes in body weight and body composition. Phentermine is classically referred to as a catecholaminergic agonist as it actually hits NA/5-HT receptors. DIO male rats were fattened and divided into four treatment groups, as described above. Each group was implanted with subcutaneous osmotic mini-pumps and/or inserted with an oral gavage, designed to deliver vehicle, phentermine (10 mg/kg/day), amylin (100 μg/kg/day) or phentermine (10 mg/kg/day)+amylin (100 μg/kg/day) for a 14 day period. The mini-pump contained either vehicle (50% DMSO in water) or amylin while the oral gavage administered either sterile water or phentermine Body weight was recorded daily and body composition was measured prior to and after drug treatment using NMR.

Test [2] in a line: Example 8: 24-week randomized, double-blind clinical study of pramlintide and metreleptin in overweight and obese subjects. Type of test: in vivo, human. The note with it: for rate of change in body weight, late rate (12-20 weeks): 24-week study, FIG. 24. The protocol: To evaluate inter alia the safety, tolerability and effect of the combination of an amylin agonist (pramlintide) and a leptin (metreleptin) on changes in body weight, a 24-week, randomized, double-blind, active-drug-controlled, multicenter study was conducted under USFDA approved protocols. Secondary objectives of the study were the determination of the pharmacokinetics of pramlintide and leptin, waist circumference, rate of change in body weight, and patient reported outcomes including for example without limitation perception of well-being related to weight change and mood. The study enrolled overweight and obese subjects with defined BMI ([…]), with enrollment statistics as provided in Table 2. […] Subjects treated with pramlintide/metreleptin lost an average of 25 pounds from the start of the 24-week study compared with an average of 17 pounds for subjects treated with pramlintide alone.
In an initial lead-in phase, all subjects received dietary instructions and treatment with pramlintide at 180 mcg BID for two weeks, followed by pramlintide at 360 mcg BID for two weeks. Subjects who completed the 4-week lead-in period and who lost 2-8 percent body weight during this period were eligible to continue the study. The term “enrolled” (Table 2) refers to subjects (N=177) receiving at least one dose of pramlintide during the lead-in period. The term “non-randomized” refers to subjects not continuing in the study past the lead-in period. The term “evaluable” refers to subjects who completed Visit 9 (Week 16) study procedures and adequately complied with the study protocol.
After the 4-week lead-in period, for the remaining 20 weeks of the study the subjects were randomized in a 2:2:1 ratio to one of three groups with BID treatment of 1) pramlintide 360 mcg/metreleptin 5 mg (“Leptin+Pramlintide”); 2) pramlintide 360 mcg/placebo (“Pramlintide”); or 3) metreleptin 5 mg/placebo (“Leptin”).

Test [3] in a line: Example 5: amylin and rimonabant (CB-1 antagonist) in DIO rats, body weight and body composition. Type of test: in vivo, rat. The conditions noted are these: after two weeks, FIG. 12C. The protocol: These rats were developed by Barry Levin from a line of Crl:CD®(SD)BR rats that are prone to become obese on a diet relatively high in fat and energy. They were housed individually in shoebox cages at 22 C in a 12/12-hour light dark cycle. […] Rats were habituated to oral gavage for 1 week prior to treatment. Rimonabant was administered at a range of doses (0.1, 0.3, 1.0, 3.0. 10 mg/kg/day) by oral gavage. Amylin (dissolved in 50% DMSO sterile water) or vehicle was administered by mini-pump (100 μg/kg/day). Rimonabant was always delivered just prior to lights out. Food intake and body weight were measured at 1 and 2 weeks post-treatment. Body composition was measured prior to and after drug treatment using NMR (Echo Medical Systems, Houston, Tex.). For body composition measurements, rats were briefly placed (˜1 min) in a well-ventilated plexiglass tube that was then inserted into a specialized rodent NMR machine. Rats were scanned prior to pump implantation and on the final day of the experiment. This enabled the calculation of changes in actual grams of fat and dry lean tissue (e.g., grams of body fat after treatment−grams of body fat at baseline=change in grams of body fat) and changes in % body composition for fat and dry lean tissue (e.g., % body fat after treatment−% body fat at baseline=change in % body fat).

Test [4] in a line: Example 4: amylin and sibutramine in DIO rats, body weight and body composition. The class given is in vivo, rat. The note with it: after two weeks, FIG. 10C. The protocol: (§1) Rat amylin was dissolved in 50% DMSO in sterile water and sibutramine was dissolved in sterile water. Each group was implanted with subcutaneous osmotic mini-pumps designed to deliver vehicle, sibutramine (3 mg/kg/day) or amylin (100 μg/kg/day) for a 14 day period. Body weight and food intake were recorded daily. Body composition was measured prior to and after drug treatment using NMR (Echo Medical Systems, Houston, Tex.). For body composition measurements, rats were briefly placed (˜1 min) in a well-ventilated plexiglass tube that was then inserted into a specialized rodent NMR machine. Rats were scanned prior to pump implantation and on the final day of the experiment. This enabled the calculation of changes in actual grams of fat and dry lean tissue (e.g., grams of body fat after treatment−grams of body fat at baseline=change in grams of body fat) and changes in % body composition for fat and dry lean tissue (e.g., % body fat after treatment−% body fat at baseline=change in % body fat).

Test [5] can be described thus: Example 7: amylin and PYY(3-36) in DIO rats, body weight and body composition. Type of test: in vivo, rat. The note with it: after two weeks, FIG. 16C. As for the experimental part: as §1, with “Food intake and body weight” for “Rat amylin”, “was” for “was dissolved in 50% DMSO in sterile water and sibutramine was dissolved in sterile water. Each group was implanted with subcutaneous osmotic mini-pumps designed to deliver vehicle, sibutramine (3 mg/kg/day) or amylin (100 μg/kg/day) for a 14 day period. Body weight and food intake were”

The nature of test [6]: Example 3: serum leptin levels (immunoassay) in DIO prone and normal HSD rats after amylin. Type of test: in vivo, rat. The conditions noted are these: amylin 100 μg/kg/day, 14 days, FIG. 8. The protocol: DIO prone and normal HSD rats were divided into three treatment groups. Two groups were implanted with subcutaneous osmotic mini-pumps (DURECT Corp., Cupertino, Calif.) designed to deliver vehicle or amylin (100 μg/kg/day) and the third group was pair-fed to the amount consumed by the amylin-treated group for a 14 day period. Serum leptin levels were determined by immunoassays using a commercial kit (Linco Research, Inc., St. Charles, Mo.). […] Thus, DIO prone rats are hyper-leptinemic.

Test [7] can be described thus: Example 6: amylin and exendin-4 analog in DIO rats, body weight and body composition. Type of test: in vivo, rat. The note with it: after two weeks, FIG. 15C. The protocol:
[…]. Prior to drug administration rats had typically attained a mean body weight of 500 g Exendin-4 analog was administered by minipump at a range of doses (0.3, 1, 3, 10, 30 μg/kg/day). Amylin (dissolved in 50% DMSO in water) or vehicle was administered by mini-pump (100 μg/kg/day). Body weight and food intake was recorded daily. Body composition was measured prior to and after drug treatment using NMR (Echo Medical Systems, Houston, Tex.). For body composition measurements, rats were briefly placed (˜1 min) in a well-ventilated plexiglass tube that was then inserted into a specialized rodent NMR machine. Rats were scanned prior to pump implantation and on the final day of the experiment. This enabled the calculation of changes in actual grams of fat and dry lean tissue (e.g., grams of body fat after treatment−grams of body fat at baseline=change in grams of body fat) and changes in % body composition for fat and dry lean tissue (e.g., % body fat after treatment−% body fat at baseline=change in % body fat).

For the molecule `CC(C)(N)Cc1ccccc1` [phentermine, reference compound], the “changes in body protein (lean (protein) mass)” value (“changes in body protein” below) in test [1] is reported as “unchanged or tended to be lost”.
`CC[C@H](C)[C@H](NC(=O)[C@@H]1CCCN1C(=O)CNC(=O)[C@H](Cc1ccccc1)NC(=O)[C@H](CC(N)=O)NC(=O)[C@H](CC(N)=O)NC(=O)[C@H](CO)NC(=O)[C@H](CO)NC(=O)[C@H](Cc1c[nH]cn1)NC(=O)[C@@H](NC(=O)[C@H](CC(C)C)NC(=O)[C@H](Cc1ccccc1)NC(=O)[C@H](CC(N)=O)NC(=O)[C@H](C)NC(=O)[C@H](CC(C)C)NC(=O)[C@H](CCCNC(=N)N)NC(=O)[C@H](CCC(N)=O)NC(=O)[C@@H](NC(=O)[C@H](C)NC(=O)[C@@H]1CSSC[C@H](NC(=O)[C@@H](N)CCCCN)C(=O)N[C@@H](CC(N)=O)C(=O)N[C@@H]([C@@H](C)O)C(=O)N[C@@H](C)C(=O)N[C@@H]([C@@H](C)O)C(=O)N1)[C@@H](C)O)C(C)C)C(=O)N[C@@H](CC(C)C)C(=O)N1CCC[C@H]1C(=O)N1CCC[C@H]1C(=O)N[C@H](C(=O)N[C@@H](CC(N)=O)C(=O)N[C@H](C(=O)NCC(=O)N[C@@H](CO)C(=O)N[C@@H](CC(N)=O)C(=O)N[C@H](C(=O)N[C@@H](Cc1ccc(O)cc1)C(N)=O)[C@@H](C)O)C(C)C)[C@@H](C)O` [pramlintide, ^25,28,29Pro-h-amylin]: the “Mean Change in Body Weight (kg) over lead-in period” value in test [2] (4-week lead-in, all subjects received pramlintide 180 then 360 mcg BID, columns name the later randomization groups) was -3.65 kg. In test [2], the “rate of change in body weight, late rate (12-20 weeks)” value is listed as “approached a late rate of zero”. Further, the “body weight reduced on average at the end of the 24-week study” value in test [2] (overweight and obese subjects, pramlintide 360 mcg BID, metreleptin 5 mg BID, p<0.001) came out at 8.4%.
`Cc1c(C(=O)NN2CCCCC2)nn(-c2ccc(Cl)cc2Cl)c1-c1ccc(Cl)cc1` [rimonabant, reference compound]: in test [3], the “changes in body protein” value is reported as “relatively equivalent increase in lean (protein) mass”.
As to `CC(C)CC(N(C)C)C1(c2ccc(Cl)cc2)CCC1` (stereo not drawn) [sibutramine, reference compound], in test [4], the “changes in body protein” value is “relatively unchanged”.
In the case of Rat amylin, the “changes in body protein” value is “preserved lean (protein) mass” in test [1]; “increase in lean (protein) mass” in test [5]; “relatively equivalent increase in lean (protein) mass” in test [7]; “increase in lean (protein) mass” in test [4]; “relatively equivalent increase in lean (protein) mass” in test [3]. Further, the “plasma (serum) leptin levels, DIO prone animals” value in test [6] (DIO prone rats) was “significantly reduced”. In test [6] (normal HSD rats), the “plasma (serum) leptin levels, normal animals” value is “significantly reduced”.
Consider ^14Leu-exendin-4 [Exendin-4 analog], for which the “changes in body protein” value in test [7] was “relatively equivalent increase in lean (protein) mass”.
On to “recombinant methionyl human leptin [metreleptin]”, for which, in test [2], the “rate of change in body weight, late rate (12-20 weeks)” value was “approached a late rate of zero”.
